Data from PMC3427755 (Organic & biomolecular chemistry, 2012).
Entries after “also recorded” stand apart in the source; their conditions may differ. Where two headings read alike, the source gives them in different places.

Assays:
B-Raf^V600E = B-Raf^V600E (Homo sapiens, UniProt P15056, V600E); assay: In vitro B-Raf kinase assay; type: biochemical; settings: for Inhibition rate B-Raf^V600E: [I]=1μM
B-Raf^WT = B-Raf^WT (Homo sapiens, UniProt P15056); assay: In vitro B-Raf kinase assay; type: biochemical; settings: for Inhibition rate (%) B-Raf: 2μM of compound; for Inhibition rate B-Raf: [I]=1μM; for inhibition at 2 µM: read-out: Inhibition rate (%) B-Raf
[1] = system: A375 (B-Raf^V600E) malignant melanoma cells; assay: Anti-proliferation activity, A375 melanoma cells; type: cell-based, human; settings: for inhibition at 10 µM: Homo sapiens, A-375, read-out: Tumor growth inhibition rate A375(B-Raf^V600E); for Tumor growth inhibition rate A375(B-Raf^V600E): [I]=10μM
[2] = system: SW620 (B-Raf^WT) human colonic carcinoma cells; assay: Anti-proliferation activity, SW620 cells; type: cell-based; settings: SW-620, read-out: Tumor growth inhibition rate SW620 (B-Raf)
[3] = read-out: Inhibition rate (%) B-Raf^V600E, 2μM of compound
[4] = read-out: Inhibition rate (%) B-Raf^V600E
[5] = read-out: Inhibition rate (%) B-Raf^V600E, 0.5μM of compound

B-Raf^WT, sequence (P15056 433-726): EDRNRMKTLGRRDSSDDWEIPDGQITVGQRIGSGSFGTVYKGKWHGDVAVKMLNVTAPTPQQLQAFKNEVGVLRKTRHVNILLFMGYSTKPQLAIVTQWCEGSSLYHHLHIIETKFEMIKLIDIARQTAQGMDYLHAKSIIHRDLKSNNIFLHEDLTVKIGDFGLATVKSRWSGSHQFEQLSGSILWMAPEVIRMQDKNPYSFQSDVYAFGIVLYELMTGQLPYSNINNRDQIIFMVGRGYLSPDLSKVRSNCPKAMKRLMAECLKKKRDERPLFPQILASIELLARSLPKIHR
B-Raf^V600E, sequence (P15056 433-726 V600E): as the sequence (P15056 433-726) above, with V168E counted along it

O=C1Nc2ccc(Cl)cc2C1=Cc1ccc(-c2cccc(C(F)(F)F)c2)o1 [Compound 17c, 3-[5-(3-trifluomethyl-phenyl)-furan-2-ylmethylene]-5-chloro-1,3-dihydro-indol-2-one]
Inhibition rate (%) B-Raf^V600E (B-Raf^V600E; 2μM of compound): 23% n.d. | Inhibition rate (%) B-Raf (B-Raf^WT): 17% n.d.

O=C1NC(=O)C(=Cc2ccc(-c3ccc4ccccc4c3)o2)S1 [Compound 19j, 5-[5-(2-naphthyl)-furan-2ylmethylene]-thiazolidine-2,4-dione]
inhibition at 2 µM (B-Raf^V600E; [3]): 51%

O=C1NC(=S)NC(=O)C1=Cc1ccc(-c2cccc(C(F)(F)F)c2)o1 [Compound 22l, 5-[5-(3-trifluomethyl-phenyl)-furan-2ylmethylene]-2-thioxo-dihydro-pyrimidine-4,6-dione]
Inhibition rate B-Raf^V600E (B-Raf^V600E): 45% | Inhibition rate B-Raf (B-Raf^WT): 30%

O=C1Nc2cc(Cl)ccc2C1=Cc1ccc(-c2cccc(C(F)(F)F)c2)o1 [Compound 17b, 3-[5-(3-trifluomethyl-phenyl)-furan-2-ylmethylene]-6-chloro-1,3-dihydro-indol-2-one]
Inhibition rate (%) B-Raf^V600E (B-Raf^V600E; 2μM of compound): 38% n.d.

O=C1Nc2ccccc2C1=Cc1ccc(-c2cccc(C(F)(F)F)c2)o1 [Compound 17a, 3-[5-(3-trifluomethyl-phenyl)-furan-2-ylmethylene]-1,3-dihydro-indol-2-one]
Inhibition rate (%) B-Raf^V600E (B-Raf^V600E; 2μM of compound): 34% n.d.

O=C1Nc2ccc(Cl)cc2C1=Cc1ccc(-c2cc(C(F)(F)F)ccc2Cl)o1 [Compound 17e, 3-[5-(2-chloro-5-trifluomethyl)-furan-2-ylmethylene]-5-chloro-1,3-dihydro-indol-2-one]
Inhibition rate (%) B-Raf^V600E (B-Raf^V600E; 2μM of compound): 34% n.d.

COc1cccc(-c2ccc(C=C3SC(=O)NC3=O)o2)c1 [Compound 19b, 5-[5-(3-methoxy-phenyl)-furan-2ylmethylene]-thiazolidine-2,4-dione]
inhibition at 2 µM (B-Raf^V600E; [3]): 34%

O=C1NC(=O)C(=Cc2ccc(-c3cc(C(F)(F)F)ccc3Cl)o2)S1 [Compound 19k, 5-[5-(2-chloro-5-trifluomethyl)-furan-2ylmethylene]-thiazolidine-2,4-dione]
Inhibition rate (%) B-Raf^V600E (B-Raf^V600E; 2μM of compound): 37% n.d. | Inhibition rate (%) B-Raf (B-Raf^WT): 18% n.d.

CC(C)(C)c1ccc(-c2ccc(C=C3SC(=O)NC3=O)o2)cc1 [Compound 19i, 5-[5-(4-tert-butyl-phenyl)-furan-2ylmethylene]-thiazolidine-2,4-dione]
inhibition at 2 µM (B-Raf^V600E; [3]): 34% | inhibition at 2 µM (B-Raf^WT): 17%

COc1cccc(-c2ccc(C=C3C(=O)NC(=S)NC3=O)o2)c1 [Compound 22b, 5-[5-(3-methoxy-phenyl)-furan-2ylmethylene]-2-thioxo-dihydro-pyrimidine-4,6-dione]
inhibition at 0.5 µM (B-Raf^V600E; [4]): 34% | inhibition at 2 µM (B-Raf^V600E; [4]): 63% | inhibition at 2 µM (B-Raf^WT): 6% | inhibition at 10 µM [1]: 26.2%

O=C1NC(=S)NC(=O)C1=Cc1ccc(-c2ccc(Cl)cc2)o1 [Compound 22e, 5-[5-(4-chloro-phenyl)-furan-2ylmethylene]-2-thioxo-dihydro-pyrimidine-4,6-dione]
inhibition at 0.5 µM (B-Raf^V600E; [4]): 33% | inhibition at 2 µM (B-Raf^V600E; [4]): 69% | inhibition at 2 µM (B-Raf^WT): 15% | inhibition at 10 µM [2]: 9% | inhibition at 10 µM [1]: 82.9% | Tumor growth inhibition rate A375(B-Raf^V600E) [1]: potent growth inhibition activity

O=C1C(=Cc2ccc(-c3ccc(Cl)cc3)o2)Cc2ccccc21 [Compound 16e, 2-[5-(4-chloro-phenyl)-furan-2-ylmethylene]-indan-1-one]
inhibition at 0.5 µM (B-Raf^V600E; [5]): 41% | inhibition at 2 µM (B-Raf^V600E; [3]): > 50% | inhibition at 10 µM [1]: 5.2%

O=C1C(=Cc2ccc(-c3cccc(C(F)(F)F)c3)o2)Cc2ccccc21 [Compound 16b, 2-[5-(3-trifluomethyl-phenyl)-furan-2-ylmethylene]-indan-1-one]
Inhibition rate (%) B-Raf^V600E (B-Raf^V600E; 2μM of compound): 22% n.d.

O=C1NC(=S)NC(=O)C1=Cc1ccc(-c2cc(C(F)(F)F)ccc2Cl)o1 [Compound 22k, 5-[5-(2-chloro-5-trifluomethyl)-furan-2ylmethylene]-2-thioxo-dihydro-pyrimidine-4,6-dione]
Tumor growth inhibition rate A375(B-Raf^V600E) [1]: 18.3

O=C1NC(=S)NC(=O)C1=Cc1ccc(-c2ccc(Cl)c(C(F)(F)F)c2)o1 [Compound 22p, 5-[5-(3-trifluomethyl-4-chloro)-furan-2ylmethylene]-2-thioxo-dihydro-pyrimidine-4,6-dione]
Inhibition rate B-Raf^V600E (B-Raf^V600E): 48% | Inhibition rate B-Raf (B-Raf^WT): 37%

O=C1NC(=S)NC(=O)C1=Cc1ccc(-c2ccc(Cl)cc2[N+](=O)[O-])o1 [Compound 22n, 5-[5-(2-nitro-4-chloro)-furan-2ylmethylene]-2-thioxo-dihydro-pyrimidine-4,6-dione]
Inhibition rate B-Raf^V600E (B-Raf^V600E): 22% | Inhibition rate B-Raf (B-Raf^WT): 20%

O=C1C(=Cc2ccc(-c3cc(C(F)(F)F)ccc3Cl)o2)Cc2ccccc21 [Compound 16g, 2-[5-(2-chloro-5-trifluomethyl)-furan-2-ylmethylene]-indan-1-one]
Inhibition rate (%) B-Raf^V600E (B-Raf^V600E; 2μM of compound): 44% n.d.

O=C1NC(=S)NC(=O)C1=Cc1ccc(-c2ccc([N+](=O)[O-])cc2)o1 [Compound 22c, 5-[5-(4-nitro-phenyl)-furan-2ylmethylene]-2-thioxo-dihydro-pyrimidine-4,6-dione]
inhibition at 2 µM (B-Raf^V600E; [4]): 59% | inhibition at 2 µM (B-Raf^WT): 55% | inhibition at 10 µM [1]: 46.3%

O=C1NC(=O)C(=Cc2ccc(-c3ccccc3[N+](=O)[O-])o2)S1 [Compound 19a, 5-[5-(2-nitro-phenyl)-furan-2ylmethylene]-thiazolidine-2,4-dione]
inhibition at 2 µM (B-Raf^V600E; [3]): 7%

O=C1C(=Cc2ccc(-c3ccc([N+](=O)[O-])cc3)o2)Cc2ccccc21 [Compound 16d, 2-[5-(4-nitro-phenyl)-furan-2-ylmethylene]-indan-1-one]
inhibition at 2 µM (B-Raf^V600E; [3]): 34%

Cc1ccc(-c2ccc(C=C3C(=O)NC(=S)NC3=O)o2)cc1 [Compound 22g, 5-[5-(4-methyl-phenyl)-furan-2ylmethylene]-2-thioxo-dihydro-pyrimidine-4,6-dione]
inhibition at 0.5 µM (B-Raf^V600E; [4]): 50% | inhibition at 2 µM (B-Raf^V600E; [4]): 59% | inhibition at 2 µM (B-Raf^WT): 17% | inhibition at 10 µM [2]: 3.6% | inhibition at 10 µM [1]: 84% | Tumor growth inhibition rate A375(B-Raf^V600E) ([1]; 10 µM): potent growth inhibition activity; also recorded: virtually complete growth inhibition

COc1ccc(-c2ccc(C=C3SC(=O)NC3=O)o2)cc1 [Compound 19h, 5-[5-(4-methoxy-phenyl)-furan-2ylmethylene]-thiazolidine-2,4-dione]
inhibition at 2 µM (B-Raf^V600E; [3]): 41% | inhibition at 2 µM (B-Raf^WT): 3%

O=C1C(=Cc2ccc(-c3cccc(C(F)(F)F)c3)o2)Cc2cc(Cl)ccc21 [Compound 16c, 2-[5-(3-trifluomethyl-phenyl)-furan-2-ylmethylene]-5-chloro-indan-1-one]
Inhibition rate (%) B-Raf^V600E (B-Raf^V600E; 0.5μM of compound): 42% | Tumor growth inhibition rate A375(B-Raf^V600E) [1]: 3.2

CC(C)(C)c1ccc(-c2ccc(C=C3C(=O)NC(=S)NC3=O)o2)cc1 [Compound 22i, 5-[5-(4-tert-butyl-phenyl)-furan-2ylmethylene]-2-thioxo-dihydro-pyrimidine-4,6-dione]
inhibition at 0.5 µM (B-Raf^V600E; [4]): 36% | inhibition at 2 µM (B-Raf^V600E; [4]): 57% | inhibition at 2 µM (B-Raf^WT): 29% | inhibition at 10 µM [2]: 7.6% | inhibition at 10 µM [1]: 95.4% | Tumor growth inhibition rate A375(B-Raf^V600E) ([1]; 10 µM): potent growth inhibition activity; also recorded: virtually complete growth inhibition

O=C1C(=Cc2ccc(-c3ccccc3[N+](=O)[O-])o2)Cc2ccccc21 [Compound 16a, 2-[5-(2-nitro-phenyl)-furan-2-ylmethylene]-indan-1-one]
inhibition at 0.5 µM (B-Raf^V600E; [5]): 47% | inhibition at 2 µM (B-Raf^V600E; [3]): > 50% | inhibition at 2 µM (B-Raf^WT): 11% | inhibition at 10 µM [1]: 16.5%

O=C1C(=Cc2ccc(-c3ccc(Br)cc3)o2)Cc2ccccc21 [Compound 16f, 2-[5-(4-bromo-phenyl)-furan-2-ylmethylene]-indan-1-one]
inhibition at 2 µM (B-Raf^V600E; [3]): 42%

O=C1NC(=S)NC(=O)C1=Cc1ccc(-c2ccccc2[N+](=O)[O-])o1 [Compound 22a, 5-[5-(2-nitro-phenyl)-furan-2ylmethylene]-2-thioxo-dihydro-pyrimidine-4,6-dione]
inhibition at 0.5 µM (B-Raf^V600E; [4]): 48% | inhibition at 2 µM (B-Raf^V600E; [4]): 61% | inhibition at 2 µM (B-Raf^WT): 38%

O=C1NC(=O)C(=Cc2ccc(-c3ccc([N+](=O)[O-])cc3)o2)S1 [Compound 19c, 5-[5-(4-nitro-phenyl)-furan-2ylmethylene]-thiazolidine-2,4-dione]
inhibition at 2 µM (B-Raf^V600E; [3]): 48%

O=C1Nc2ccccc2C1=Cc1ccc(-c2cc(C(F)(F)F)ccc2Cl)o1 [Compound 17d, 3-[5-(2-chloro-5-trifluomethyl)-furan-2-ylmethylene]-1,3-dihydro-indol-2-one]
Inhibition rate (%) B-Raf^V600E (B-Raf^V600E; 2μM of compound): 23% n.d.

O=C1NC(=S)NC(=O)C1=Cc1ccc(-c2ccc(Cl)cc2C(F)(F)F)o1 [Compound 22o, 5-[5-(2-trifluomethyl-4-chloro)-furan-2ylmethylene]-2-thioxo-dihydro-pyrimidine-4,6-dione]
Inhibition rate B-Raf^V600E (B-Raf^V600E): 49% | Inhibition rate B-Raf (B-Raf^WT): 24%

Cc1ccc(-c2ccc(C=C3SC(=O)NC3=O)o2)cc1 [Compound 19g, 5-[5-(4-methyl-phenyl)-furan-2ylmethylene]-thiazolidine-2,4-dione]
inhibition at 2 µM (B-Raf^V600E; [3]): 41%

O=C1NC(=S)NC(=O)C1=Cc1ccc(-c2ccc3ccccc3c2)o1 [Compound 22j, 5-[5-(2-naphthyl)-furan-2ylmethylene]-2-thioxo-dihydro-pyrimidine-4,6-dione]
IC50 (B-Raf^V600E): 1070 nM | IC50 (B-Raf^WT): 1930 nM | inhibition at 10 µM [1]: 6.9%

O=C1Nc2cc(Cl)ccc2C1=Cc1ccc(-c2cc(C(F)(F)F)ccc2Cl)o1 [Compound 17f, 3-[5-(2-chloro-5-trifluomethyl)-furan-2-ylmethylene]-6-chloro-1,3-dihydro-indol-2-one]
Inhibition rate (%) B-Raf^V600E (B-Raf^V600E; 2μM of compound): 34% n.d.
